Structure (SMILES) | melting point
Cn1cc(-c2nn(-c3cccc(C(F)(F)F)c3)ccc2=O)c(-c2ccccc2)n1 [Example 76, 3-(1-Methyl-3-phenyl-1H-pyrazol-4-yl)-1-[3-(trifluoromethyl)phenyl]pyridazin-4(1H)-one] | 181 to 183 °C
CC(C)n1ncc(-c2nn(-c3cccc(C(F)(F)F)c3)ccc2=O)c1-c1ccccc1 [Example 78, 3-[1-(1-Methylethyl)-5-phenyl-1H-pyrazol-4-yl]-1-[3-(trifluoromethyl)phenyl]pyridazin-4(1H)-one] | 183 to 186 °C
O=c1ccn(-c2cccc(C(F)(F)F)c2)nc1-c1conc1-c1ccccc1 [Example 79, 3-(3-Phenylisoxazol-4-yl)-1-[3-(trifluoromethyl)phenyl]pyridazin-4(1H)-one] | 217 to 219 °C
O=c1ccn(-c2cccc(C(F)(F)F)c2)nc1-n1ccnc1-c1ccccc1 [Example 81, 3-(2-Phenyl-1H-imidazol-1-yl)-1-[3-(trifluoromethyl)phenyl]pyridazin-4(1H)-one] | 204 to 205 °C
COc1cn(-c2cccc(C(F)(F)F)c2)nc(-n2ccnc2-c2ccccc2)c1=O [Example 82, 5-Methoxy-3-(2-phenyl-1H-imidazol-1-yl)-1-[3-(trifluoromethyl)phenyl]pyridazin-4(1H)-one] | 167 to 170 °C
Cn1cnc(-c2ccccc2)c1-c1nn(-c2cccc(C(F)(F)F)c2)ccc1=O [Example 84, 3-(1-Methyl-4-phenyl-1H-imidazol-5-yl)-1-[3-(trifluoromethyl)phenyl]pyridazin-4(1H)-one] | 214 to 216 °C
O=c1ccn(-c2cccc(C(F)(F)F)c2)nc1-c1ccoc1-c1ccccc1 [Example 85, 3-(2-Phenylfuran-3-yl)-1-[3-(trifluoromethyl)phenyl]pyridazin-4(1H)-one] | 159 to 163 °C
O=c1ccn(-c2cccc(C(F)(F)F)c2)nc1-c1ccsc1-c1ccccc1 [Example 86, 3-(2-Phenylthiophen-3-yl)-1-[3-(trifluoromethyl)phenyl]pyridazin-4(1H)-one] | 167 to 168 °C
COc1cn(-c2ccncc2)nc(-c2ccnn2-c2ccccc2)c1=O [Example 87, 5-Methoxy-3-(1-phenyl-1H-pyrazol-5-yl)-1-pyridin-4-ylpyridazin-4(1H)-one] | 195 to 197 °C
COc1cn(-c2cccc3cccnc23)nc(-c2ccnn2-c2ccccc2)c1=O [Example 88, 5-Methoxy-3-(1-phenyl-1H-pyrazol-5-yl)-1-quinolin-8-ylpyridazin-4(1H)-one] | 189 to 192 °C
COc1cn(-c2cccc3c2OC(F)(F)O3)nc(-c2ccnn2-c2ccccc2)c1=O [Example 90, 1-(2,2-Difluoro-1,3-benzodioxol-4-yl)-5-methoxy-3-(1-phenyl-1H-pyrazol-5-yl)pyridazin-4(1H)-one] | 181 to 183 °C
COc1cn(-c2ccc(O)cc2F)nc(-c2ccnn2-c2ccccc2)c1=O [Example 91, 1-(2-Fluoro-4-hydroxyphenyl)-5-methoxy-3-(1-phenyl-1H-pyrazol-5-yl)pyridazin-4(1H)-one] | 223 to 224 °C
COc1cn(-c2cc3c(cc2F)OC(F)(F)O3)nc(-c2ccnn2-c2ccccc2)c1=O [Example 95, 5-Methoxy-3-(1-phenyl-1H-pyrazol-5-yl)-1-(2,2,6-trifluoro-1,3-benzodioxol-5-yl)pyridazin-4(1H)-one] | 200 to 202 °C
COc1cn(-c2cc3c(cc2F)OC(F)(F)C(F)(F)O3)nc(-c2ccnn2-c2ccccc2)c1=O [Example 96, 5-Methoxy-1-(2,2,3,3,7-pentafluoro-2,3-dihydro-1,4-benzodioxin-6-yl)-3-(1-phenyl-1H-pyrazol-5-yl)pyridazin-4(1H)-one] | 192 to 194 °C
COc1cn(-c2ccc(-c3c(C)noc3C)cc2F)nc(-c2ccnn2-c2ccccc2)c1=O [Example 112, 1-[4-(3,5-Dimethylisoxazol-4-yl)-2-fluorophenyl]-5-methoxy-3-(1-phenyl-1H-pyrazol-5-yl)pyridazin-4(1H)-one] | 200 to 202 °C
O=c1ccn(-c2cccc3c2OC(F)(F)O3)nc1-c1ccnn1-c1ccccc1 [Example 142, 1-(2,2-Difluoro-1,3-benzodioxol-4-yl)-3-(1-phenyl-1H-pyrazol-5-yl)pyridazin-4(1H)-one] | 105 to 107 °C
O=c1ccn(-c2cccc(C(F)(F)F)c2)nc1-c1ccnn1CC1CC1 [Example 152, 3-[1-(Cyclopropylmethyl)-1H-pyrazol-5-yl]-1-[3-(trifluoromethyl)phenyl]pyridazin-4(1H)-one] | 155 to 157 °C
O=c1ccn(-c2cccc(C(F)(F)F)c2)nc1-c1ccnn1Cc1ccccc1 [Example 153, 3-(1-Benzyl-1H-pyrazol-5-yl)-1-[3-(trifluoromethyl)phenyl]pyridazin-4(1H)-one] | 156 to 157 °C
COc1ccc(Cn2nccc2-c2nn(-c3cccc(C(F)(F)F)c3)ccc2=O)cc1 [Example 154, 3-[1-(4-Methoxybenzyl)-1H-pyrazol-5-yl]-1-[3-(trifluoromethyl)phenyl]pyridazin-4(1H)-one] | 159 to 161 °C
COc1cn(-c2cccnc2)nc(-c2ccnn2-c2ccccc2)c1=O [Example 173, 5-Methoxy-3-(1-phenyl-1H-pyrazol-5-yl)-1-pyridin-3-ylpyridazin-4(1H)-one] | 210 to 212 °C
COc1cn(-c2cc(N3CCCC3=O)ccc2F)nc(-c2ccnn2-c2ccccc2)c1=O [Example 182, 1-[2-Fluoro-5-(2-oxopyrrolidin-1-yl)phenyl]-5-methoxy-3-(1-phenyl-1H-pyrazol-5-yl)pyridazin-4(1H)-one] | 171 to 174 °C
COc1cn(-c2ccc(N3CC4(CC4)OC3=O)cc2F)nc(-c2ccnn2-c2ccccc2)c1=O [Example 191, 6-{3-Fluoro-4-[5-methoxy-4-oxo-3-(1-phenyl-1H-pyrazol-5-yl)pyridazin-1(4H)-yl]phenyl}-4-oxa-6-azaspiro[2.4]heptan-5-one] | 200 to 201 °C
COc1cc(=O)c(-c2ccnn2-c2ccccc2)nn1-c1cccc(C(F)(F)F)c1 [Example 193, 6-Methoxy-3-(1-phenyl-1H-pyrazol-5-yl)-1-[3-(trifluoromethyl)phenyl]pyridazin-4(1H)-one] | 139 to 141 °C

From US8513251B2, “Pyridazinone compounds” (Takeda Pharmaceutical Company Limited, priority 2009, dated 2013)
